Broadly, the % Inhibition is the relative decrease from the control value, in per cent. Higher therefore signals a response far below the control. Usually IC50 stands for the concentration needed to halve the response being measured. Low readings indicate greater potency in that assay, high ones weaker potency in that assay.

From patent publication US10517889B2, “Modulators of SMAD7 expression” (Ionis Pharmaceuticals, Inc., priority 2017, dated 2019) come the findings set out here.

Strand notation (5' to 3'): a small letter for the sugar, then the base; units joined by * are phosphorothioate-linked, units joined directly phosphodiester-linked; [ ] holds rarer units or linkages, { } end groups; capitals alone tell only the bases. k = constrained ethyl (cEt); [5mC] = 5-methylcytosine; d = 2'-deoxy (DNA) Bounds are passed on as bounds.

Data set [1] concerns human SMAD7 mRNA. The experiment in a line: Antisense inhibition of human SMAD7 mRNA expression in Hep3B cells by 3-10-3 cEt gapmers, 10,000 nM, electroporation (Example 2). Format: cell-based. As to conditions: approximately 24 hours. The method, boiled down:
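SMAD7 mRNA was measured by real-time PCR (RTS5062) with RiboGreen total-RNA normalization, about 24 h after 10,000 nM gapmer was delivered by electroporation into Hep3B cells at 20,000 per well. Gapmers were 16-mer 3-10-3 cEt, fully phosphorothioate; values are % inhibition versus untreated controls.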

In data set [2] the test system is human SMAD7 mRNA. The experiment in a line: Dose-dependent inhibition of human SMAD7 mRNA expression in Hep3B cells (Example 3, Study 1 and 2). The data set is classed as cell-based. As to conditions: electroporation; for % inhibition of SMAD7 mRNA expression: approximately 16 hours; for IC50: Study 2 (740-20000 nM). As to the method:
The antisense oligonucleotides were tested in a series of experiments that had similar culture conditions as described below.
(§1) Cells were plated at a density of 20,000 cells per well and transfected using electroporation with 0.31 μM, 1.25 μM, 5.00 μM, or 20.00 μM concentrations of antisense oligonucleotide, as specified in the Tables below. ION 483663 was included in the assays for comparison. After a treatment period of approximately 16 hours, RNA was isolated from the cells and SMAD7 mRNA levels were measured by quantitative real-time PCR. Primer probe set RTS5062 was used to measure human SMAD7 mRNA levels. SMAD7 mRNA levels were adjusted according to total RNA content, as measured by RIBOGREEN®. Results are presented as percent inhibition of SMAD7 mRNA expression, relative to untreated control cells.
The half maximal inhibitory concentration (IC50) of each oligonucleotide is also presented.
as §1, with “0.74” for “0.31”, “2.22” for “1.25”, “6.67” for “5.00”, “below.” for “below. ION 483663 was included in the assays for comparison.”

Setting [3] is: Hep3B cells, 10,000 nM antisense oligonucleotide, electroporation, RT-PCR primer probe set RTS5062, relative to untreated control cells.
Where [4] appears, read: 740 nM, Study 2, relative to untreated control cells.
The mark [5] stands for this setting: Hep3B cells, electroporation with 10,000 nM antisense oligonucleotide, primer probe set RTS5062, relative to untreated control cells.

For “798823 (kA*k[5mC]*kA*dG*dT*dA*dG*dA*dG*d[5mC]*d[5mC]*dT*d[5mC]*k[5mC]*k[5mC]*k[5mC]; antisense) [compound 798823]”, the “% Inhibition” value with human SMAD7 mRNA [1] (setting [3]) was determined as 74%. In addition, the “% inhibition of SMAD7 mRNA expression” value is on record as 27% in the data set with human SMAD7 mRNA [2] (setting [4]); 27% in the data set on human SMAD7 mRNA [2] (2220 nM, Study 2); 63% in the data set with human SMAD7 mRNA [2] (6670.0 nM, Study 2); 70% with human SMAD7 mRNA [2] (20000.0 nM, Study 2). The IC50 in the data set on human SMAD7 mRNA [2] is above 20 µM.

Regarding “798824 (kG*kA*k[5mC]*dA*d[5mC]*dA*dG*dT*dA*dG*dA*dG*d[5mC]*k[5mC]*kT*k[5mC]; antisense) [compound 798824]”, in the data set on human SMAD7 mRNA [1] (setting [3]), the “% Inhibition” value turned out to be 74%. Besides, the “% inhibition of SMAD7 mRNA expression” value turned out to be 0% with human SMAD7 mRNA [2] (setting [4]); 0% in the data set on human SMAD7 mRNA [2] (2220 nM, Study 2); 7% in the data set on human SMAD7 mRNA [2] (6670.0 nM, Study 2); 42% in the data set on human SMAD7 mRNA [2] (20000.0 nM, Study 2). The IC50 in the data set on human SMAD7 mRNA [2] was 4 µM.

“798931 (antisense kG*kA*kG*dG*dA*dA*dA*dA*dT*dA*dT*dT*dA*kG*k[5mC]*kA) [compound 798931]”: the “% Inhibition” value with human SMAD7 mRNA [1] (setting [3]) amounted to 69%. The “% inhibition of SMAD7 mRNA expression” value in the data set with human SMAD7 mRNA [2] (setting [4]) is listed as 0%; in the data set with human SMAD7 mRNA [2] (2220 nM, Study 2), 43%; in the data set with human SMAD7 mRNA [2] (6670.0 nM, Study 2), 72%; in the data set on human SMAD7 mRNA [2] (20000.0 nM, Study 2), 83%. The IC50 in the data set with human SMAD7 mRNA [2] was 7 µM.

Take “798954 (antisense kA*kT*kA*dA*dG*d[5mC]*dT*dA*dT*dT*dT*d[5mC]*dT*k[5mC]*kA*kA) [compound 798954]”: the “% Inhibition” value in the data set on human SMAD7 mRNA [1] (setting [5]) amounted to 54%. The “% inhibition of SMAD7 mRNA expression” value with human SMAD7 mRNA [2] (setting [4]) turned out to be 4%; in the data set with human SMAD7 mRNA [2] (2220 nM, Study 2) it was 27%; with human SMAD7 mRNA [2] (6670.0 nM, Study 2), 49%; with human SMAD7 mRNA [2] (20000.0 nM, Study 2), 70%. The same substance came in with an IC50 with human SMAD7 mRNA [2] above 20 µM.

With “798987 (antisense kA*kA*kT*dG*dA*dT*dG*dA*d[5mC]*d[5mC]*dG*d[5mC]*d[5mC]*k[5mC]*k[5mC]*k[5mC]) [compound 798987]”, the “% inhibition of SMAD7 mRNA expression” value in the data set on human SMAD7 mRNA [1] (setting [5]) is recorded as 84%; with human SMAD7 mRNA [2] (setting [4]), 0%; with human SMAD7 mRNA [2] (2220 nM, Study 2) it was 0%; in the data set with human SMAD7 mRNA [2] (6670.0 nM, Study 2) it was 8%; in the data set with human SMAD7 mRNA [2] (20000.0 nM, Study 2), 47%. In the data set on human SMAD7 mRNA [2], 4 µM corresponded to half-maximal inhibition (IC50).

As for “799067 (antisense kG*kG*kA*dT*dG*dA*dA*dA*dA*dT*dA*dA*dT*kT*kG*kG) [compound 799067]”, the “% inhibition of SMAD7 mRNA expression” value with human SMAD7 mRNA [1] (setting [5]) worked out at 74%; in the data set with human SMAD7 mRNA [2] (setting [4]) it was 5%; in the data set with human SMAD7 mRNA [2] (2220 nM, Study 2), 55%; with human SMAD7 mRNA [2] (6670.0 nM, Study 2), 63%; in the data set with human SMAD7 mRNA [2] (20000.0 nM, Study 2), 78%. Besides, the IC50 with human SMAD7 mRNA [2] was found to be 9 µM.

Take “799070 (antisense kA*kG*kG*dG*dA*dA*dT*dA*dA*dG*dA*d[5mC]*dA*kA*kG*kG) [compound 799070]”: the “% inhibition of SMAD7 mRNA expression” value in the data set with human SMAD7 mRNA [1] (setting [5]) stood at 67%; with human SMAD7 mRNA [2] (setting [4]), 0%; in the data set on human SMAD7 mRNA [2] (2220 nM, Study 2) it was 44%; in the data set on human SMAD7 mRNA [2] (6670.0 nM, Study 2), 42%; in the data set on human SMAD7 mRNA [2] (20000.0 nM, Study 2), 60%. The substance further gave an IC50 in the data set with human SMAD7 mRNA [2] of 4 µM.

With “799089 (antisense kA*kG*k[5mC]*dA*dA*dT*dA*d[5mC]*dT*dG*dT*dG*dA*kG*kG*kG) [compound 799089]”, the “% inhibition of SMAD7 mRNA expression” value came to 60% with human SMAD7 mRNA [1] (setting [5]); 12% with human SMAD7 mRNA [2] (setting [4]); 40% in the data set with human SMAD7 mRNA [2] (2220 nM, Study 2); 61% in the data set on human SMAD7 mRNA [2] (6670.0 nM, Study 2); 76% in the data set with human SMAD7 mRNA [2] (20000.0 nM, Study 2). For the same substance, in the data set on human SMAD7 mRNA [2], the midpoint of inhibition, the IC50, lay at 7 µM.

As for “799118 (antisense kA*kG*kA*dG*d[5mC]*dT*dT*dA*dA*d[5mC]*dA*d[5mC]*dA*k[5mC]*kA*kG) [compound 799118]”, in the data set with human SMAD7 mRNA [1] (setting [5]), the “% Inhibition” value was 71%. Besides, the “% inhibition of SMAD7 mRNA expression” value came to 0% in the data set on human SMAD7 mRNA [2] (setting [4]); 16% in the data set on human SMAD7 mRNA [2] (2220 nM, Study 2); 50% in the data set with human SMAD7 mRNA [2] (6670.0 nM, Study 2); 75% with human SMAD7 mRNA [2] (20000.0 nM, Study 2). Also, in the data set on human SMAD7 mRNA [2], the IC50 was below 0.7 µM.
